Among the data in ChEMBL document CHEMBL1122857, “A uniquely potent renin inhibitor and its unanticipated plasma binding component” (J Med Chem, 1985) are IC50, inhibition and Ki values, retold here.

For experiment [1], the target named is T1, Renin (Homo sapiens, UniProt P00797).
T1 sequence (P00797 whole entry): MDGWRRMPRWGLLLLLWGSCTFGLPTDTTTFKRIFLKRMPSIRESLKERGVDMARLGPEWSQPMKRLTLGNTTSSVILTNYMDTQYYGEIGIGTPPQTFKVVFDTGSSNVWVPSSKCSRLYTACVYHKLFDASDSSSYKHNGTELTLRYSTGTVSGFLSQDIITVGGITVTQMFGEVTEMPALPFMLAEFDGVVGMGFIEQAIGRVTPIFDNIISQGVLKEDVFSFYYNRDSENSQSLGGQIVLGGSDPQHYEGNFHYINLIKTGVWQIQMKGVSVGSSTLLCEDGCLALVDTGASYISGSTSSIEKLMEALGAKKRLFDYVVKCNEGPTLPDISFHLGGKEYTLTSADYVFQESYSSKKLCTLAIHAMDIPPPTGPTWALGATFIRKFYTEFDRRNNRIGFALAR
Briefly: (§1) Compound was tested for inhibition of human plasma renin. It is filed as cell-free. The settings on record: read-out: I50.

For experiment [2], the target named is T2, Renin (Homo sapiens) (UniProt P00797).
T2 sequence (whole entry): T1 sequence (P00797 whole entry)
The experiment is described as §1. The experiment is classed as cell-free. The settings on record: concentration not given here.

Experiment [3] has as its target Renin (Sus scrofa). Nature of the experiment: Compound was tested for inhibition of hog kidney renin. To be noted: read-out: I50.
Experiment [4] deals with T1, Renin. Nature of the experiment: Compound was tested for inhibition of human kidney renin.

Structures are written as SMILES. Non-standard residues stand in square brackets, D forms with d. Residues, ends and D or L forms follow the SMILES beside them. *: point of attachment. Sta = CC(C)C[C@H](N)[C@@H](O)CC(=O)O; X1 = c1ccc(CN2CCC(N*)CC2)cc1; Boc = CC(C)(C)OC(=O)*

For `CC(C)C[C@@H](CNCc1ccccc1)NC(=O)C[C@H](O)[C@H](CC(C)C)NC(=O)[C@H](Cc1ccccc1)NC(=O)[C@H](Cc1ccccc1)NC(=O)OC(C)(C)C`, the IC50 in experiment [1] was found to be 1000 nM; in experiment [3], 858 nM. This molecule also had an inhibition in experiment [2] of 37%. Also, the affinity in experiment [4] corresponds to a Ki of 0.026 nM.

Take `CC(C)C[C@H](NC(=O)C[C@H](O)[C@H](CC(C)C)NC(=O)[C@H](Cc1ccccc1)NC(=O)[C@H](Cc1ccccc1)NC(=O)OC(C)(C)C)C(=O)N[C@@H](Cc1ccccc1)C(N)=O` (Boc-FF[Sta]LF-NH2): the IC50 in experiment [3] is 88 nM. The molecule also registered a Ki in experiment [4] of 4.8 nM.

`CC(C)C[C@H](NC(=O)C[C@H](O)[C@H](CC(C)C)NC(=O)[C@H](Cc1c[nH]cn1)NC(=O)[C@H](Cc1ccccc1)NC(=O)OC(C)(C)C)C(=O)NC1CCN(Cc2ccccc2)CC1` (Boc-FH[Sta]L-X1): the IC50 in experiment [1] is 25 nM; in experiment [3], 269 nM. The molecule also returned a Ki in experiment [4] of 0.064 nM.

A word on the inhibition: it is the drop in the measured response relative to a control, in per cent. Low readings indicate a response near the control, high ones a response far below the control. A word on the Ki: it is a measure of affinity in units of concentration, obtained from inhibition or displacement.
